Results published in patent US9708314B2, “Heterocyclic amide compound” (NISSAN CHEMICAL INDUSTRIES, LTD., priority 2013, dated 2017).

Legend:
Type in all cases: in vivo
[1] = tested on: Cyperus difformis; assay: Test Example 3: herbicidal effect by application to foliage (Wagner pot, water depth 0.1-0.5 cm); details: Nineteenth Table; application to foliage; application herbicide amount 320 g/ha
In short: (§1)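 A small sprayer delivered the diluted emulsion uniformly to foliage at the chosen rate in g/ha, 14 days after sowing in Wagner pots held at 25–30 °C. Outcome: 0–5 herbicidal-ratio score read three weeks post-treatment.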

[2] = tested on: Echinochloa crus-galli var. crus-galli; assay: as above; details: Nineteenth Table; application to foliage; application herbicide amount 320 g/ha
In short: as §1

[3] = tested on: Leptochloa chinensis; assay: as above; details: Nineteenth Table; application to foliage; application herbicide amount 320 g/ha
In short: as §1

[4] = tested on: directly sowed Oryza sativa; assay: Test Example 3: effect on crop by application to foliage (Wagner pot, water depth 0.1-0.5 cm); details: Nineteenth Table; application to foliage; application herbicide amount 320 g/ha
In short: as §1

[5] = tested on: Abutilon theophrasti; assay: Test Example 4: herbicidal effect by application to foliage (diluvial soil, plastic box); details: for M: herbicidal effect on Abutilon theophrasti: application to foliage, application herbicide amount 320 g/ha; for M (Abutilon theophrasti) herbicidal effect grade: foliage application, 320 g/ha
In short: (§2)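 Seeds sown in sterilized diluvial soil, covered ~1.5 cm, grown 14 days in greenhouse at 25° C. to 30° C. Emulsion formulation diluted in water to set rate (g/ha) and sprayed onto stems and leaves. Effect scored visually 3 weeks later on 0–5 scale (5 = ≥90% herbicidal ratio, 0 = ≤5%).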

[6] = tested on: Alopecurus myosuroides; assay: as above; details: for J: herbicidal effect on Alopecurus myosuroides: application to foliage, application herbicide amount 320 g/ha; for J (Alopecurus myosuroides) herbicidal effect grade: foliage application, 320 g/ha
In short: as §2

[7] = tested on: Amaranthus retroflexus; assay: as above; details: for N: herbicidal effect on Amaranthus retroflexus: application to foliage, application herbicide amount 320 g/ha; for N (Amaranthus retroflexus) herbicidal effect grade: foliage application, 320 g/ha
In short: as §2

[8] = tested on: Apera spica-venti.; assay: as above; details: for L: herbicidal effect on Apera spica-venti.: application to foliage, application herbicide amount 320 g/ha; for L (Apera spica-venti.) herbicidal effect grade: foliage application, 320 g/ha
In short: as §2

[9] = tested on: Avena fatua; assay: as above; details: for I: herbicidal effect on Avena fatua: application to foliage, application herbicide amount 320 g/ha; for I (Avena fatua) herbicidal effect grade: foliage application, 320 g/ha
In short: as §2

[10] = tested on: Chenopodium album; assay: as above; details: for O: herbicidal effect on Chenopodium album: application to foliage, application herbicide amount 320 g/ha; for O (Chenopodium album) herbicidal effect grade: foliage application, 320 g/ha
In short: as §2

[11] = tested on: Digitaria ciliaris; assay: as above; details: for F: herbicidal effect on Digitaria ciliaris: application to foliage, application herbicide amount 320 g/ha; for F (Digitaria ciliaris) herbicidal effect grade: foliage application, 320 g/ha
In short: as §2

[12] = tested on: Echinochloa crus-galli var. crus-galli; assay: as above; details: for H: herbicidal effect on Echinochloa crus-galli var. crus-galli: application to foliage, application herbicide amount 320 g/ha; for H (Echinochloa crus-galli var. crus-galli) herbicidal effect grade: foliage application, 320 g/ha
In short: as §2

[13] = tested on: Galium spurium; assay: as above; details: for Q: herbicidal effect on Galium spurium: application to foliage, application herbicide amount 320 g/ha; for Q (Galium spurium) herbicidal effect grade: foliage application, 320 g/ha
In short: as §2

[14] = tested on: Lolium multiflorum Lam.; assay: as above; details: for K: herbicidal effect on Lolium multiflorum Lam.: application to foliage, application herbicide amount 320 g/ha; for K (Lolium multiflorum Lam.) herbicidal effect grade: foliage application, 320 g/ha
In short: as §2

[15] = tested on: Setaria viridis; assay: as above; details: for G: herbicidal effect on Setaria viridis: application to foliage, application herbicide amount 320 g/ha; for G (Setaria viridis) herbicidal effect grade: foliage application, 320 g/ha
In short: as §2

[16] = tested on: Stellaria media; assay: as above; details: for P: herbicidal effect on Stellaria media: application to foliage, application herbicide amount 320 g/ha; for P (Stellaria media) herbicidal effect grade: foliage application, 320 g/ha
In short: as §2

[17] = tested on: Veronica persica; assay: as above; details: for R: herbicidal effect on Veronica persica: application to foliage, application herbicide amount 320 g/ha; for R (Veronica persica) herbicidal effect grade: foliage application, 320 g/ha
In short: as §2

Compound	E (herbicidal effect grade) [1]	H (herbicidal effect grade) [2]	D (herbicidal effect grade) [3]	b (effect on crop grade) [4]	M: herbicidal effect on Abutilon theophrasti [5]	J: herbicidal effect on Alopecurus myosuroides [6]	N: herbicidal effect on Amaranthus retroflexus [7]	L: herbicidal effect on Apera spica-venti. [8]	I: herbicidal effect on Avena fatua [9]	O: herbicidal effect on Chenopodium album [10]	F: herbicidal effect on Digitaria ciliaris [11]	H: herbicidal effect on Echinochloa crus-galli var. crus-galli [12]	Q: herbicidal effect on Galium spurium [13]	K: herbicidal effect on Lolium multiflorum Lam. [14]	G: herbicidal effect on Setaria viridis [15]	P: herbicidal effect on Stellaria media [16]	R: herbicidal effect on Veronica persica [17]	M (Abutilon theophrasti) herbicidal effect grade [5]	J (Alopecurus myosuroides) herbicidal effect grade [6]	N (Amaranthus retroflexus) herbicidal effect grade [7]	further results
Cn1nnnc1NC(=O)c1ccc(C(F)(F)F)n2cnnc12 [2-001]	3 (Herbicidal ratio of 40% or more and less than 70%)	4 (Herbicidal ratio of 70% or more and less than 90%)	4 (Herbicidal ratio of 70% or more and less than 90%)	1 (Herbicidal ratio of 5% or more and less than 20%)	5 (Herbicidal ratio of 90% or more (almost completely withered))	0 (Herbicidal ratio of 5% or less (almost no effect))	5 (Herbicidal ratio of 90% or more (almost completely withered))	0 (Herbicidal ratio of 5% or less (almost no effect))	1 (Herbicidal ratio of 5% or more and less than 20%)	5 (Herbicidal ratio of 90% or more (almost completely withered))	3 (Herbicidal ratio of 40% or more and less than 70%)	4 (Herbicidal ratio of 70% or more and less than 90%)	4 (Herbicidal ratio of 70% or more and less than 90%)	1 (Herbicidal ratio of 5% or more and less than 20%)	0 (Herbicidal ratio of 5% or less (almost no effect))	5 (Herbicidal ratio of 90% or more (almost completely withered))	5 (Herbicidal ratio of 90% or more (almost completely withered))	–	–	–	–
Cc1nnc2c(C(=O)Nc3nnnn3C)ccc(C(F)(F)F)n12 [2-002]	2 (Herbicidal ratio of 20% or more and less than 40%)	5 (Herbicidal ratio of 90% or more (almost completely withered))	4 (Herbicidal ratio of 70% or more and less than 90%)	2 (Herbicidal ratio of 20% or more and less than 40%)	5 (Herbicidal ratio of 90% or more (almost completely withered))	1 (Herbicidal ratio of 5% or more and less than 20%)	5 (Herbicidal ratio of 90% or more (almost completely withered))	1 (Herbicidal ratio of 5% or more and less than 20%)	3 (Herbicidal ratio of 40% or more and less than 70%)	5 (Herbicidal ratio of 90% or more (almost completely withered))	4 (Herbicidal ratio of 70% or more and less than 90%)	5 (Herbicidal ratio of 90% or more (almost completely withered))	4 (Herbicidal ratio of 70% or more and less than 90%)	1 (Herbicidal ratio of 5% or more and less than 20%)	3 (Herbicidal ratio of 40% or more and less than 70%)	5 (Herbicidal ratio of 90% or more (almost completely withered))	5 (Herbicidal ratio of 90% or more (almost completely withered))	–	–	–	–
CC(C)c1nnc2c(C(=S)Nc3nnnn3C)ccc(C(F)(F)F)n12 [2-039, 3-Isopropyl-N-(1-methyl-1H-tetrazol-5-yl)-5-(trifluoromethyl)-[1,2,4]triazolo[4,3-a]pyridine-8-carbothioamide]	5 (Herbicidal ratio of 90% or more (almost completely withered))	5 (Herbicidal ratio of 90% or more (almost completely withered))	–	4 (Herbicidal ratio of 70% or more and less than 90%)	–	–	–	–	–	–	–	–	–	–	–	–	–	5 (Herbicidal ratio of 90% or more (almost completely withered))	3 (Herbicidal ratio of 40% or more and less than 70%)	5 (Herbicidal ratio of 90% or more (almost completely withered))	L (Apera spica-venti.) herbicidal effect grade [8]: 4 (Herbicidal ratio of 70% or more and less than 90%); I (Avena fatua) herbicidal effect grade [9]: 4 (Herbicidal ratio of 70% or more and less than 90%); O (Chenopodium album) herbicidal effect grade [10]: 5 (Herbicidal ratio of 90% or more (almost completely withered)); F (Digitaria ciliaris) herbicidal effect grade [11]: 5 (Herbicidal ratio of 90% or more (almost completely withered)); H (Echinochloa crus-galli var. crus-galli) herbicidal effect grade [12]: 5 (Herbicidal ratio of 90% or more (almost completely withered)); Q (Galium spurium) herbicidal effect grade [13]: 4 (Herbicidal ratio of 70% or more and less than 90%); K (Lolium multiflorum Lam.) herbicidal effect grade [14]: 3 (Herbicidal ratio of 40% or more and less than 70%); G (Setaria viridis) herbicidal effect grade [15]: 5 (Herbicidal ratio of 90% or more (almost completely withered)); P (Stellaria media) herbicidal effect grade [16]: 5 (Herbicidal ratio of 90% or more (almost completely withered)); R (Veronica persica) herbicidal effect grade [17]: 5 (Herbicidal ratio of 90% or more (almost completely withered))
CCOC(=O)Cc1nnc2c(C(=O)Nc3nnnn3C)ccc(C(F)(F)F)n12 [2-040]	5 (Herbicidal ratio of 90% or more (almost completely withered))	4 (Herbicidal ratio of 70% or more and less than 90%)	–	4 (Herbicidal ratio of 70% or more and less than 90%)	–	–	–	–	–	–	–	–	–	–	–	–	–	5 (Herbicidal ratio of 90% or more (almost completely withered))	1 (Herbicidal ratio of 5% or more and less than 20%)	5 (Herbicidal ratio of 90% or more (almost completely withered))	L (Apera spica-venti.) herbicidal effect grade [8]: 3 (Herbicidal ratio of 40% or more and less than 70%); I (Avena fatua) herbicidal effect grade [9]: 3 (Herbicidal ratio of 40% or more and less than 70%); O (Chenopodium album) herbicidal effect grade [10]: 5 (Herbicidal ratio of 90% or more (almost completely withered)); F (Digitaria ciliaris) herbicidal effect grade [11]: 5 (Herbicidal ratio of 90% or more (almost completely withered)); H (Echinochloa crus-galli var. crus-galli) herbicidal effect grade [12]: 5 (Herbicidal ratio of 90% or more (almost completely withered)); Q (Galium spurium) herbicidal effect grade [13]: 4 (Herbicidal ratio of 70% or more and less than 90%); K (Lolium multiflorum Lam.) herbicidal effect grade [14]: 1 (Herbicidal ratio of 5% or more and less than 20%); G (Setaria viridis) herbicidal effect grade [15]: 3 (Herbicidal ratio of 40% or more and less than 70%); P (Stellaria media) herbicidal effect grade [16]: 5 (Herbicidal ratio of 90% or more (almost completely withered)); R (Veronica persica) herbicidal effect grade [17]: 5 (Herbicidal ratio of 90% or more (almost completely withered))
